The values that follow come from ChEMBL document CHEMBL5727130, “Pyridone derivative, pharmaceutical containing the same and methods of use thereof” (2018).

In general, IC50 refers to the concentration needed to halve the response being measured.

This assay in a line: Inhibition Assay: The TACE inhibition test was carried out by measuring TACE activity in the presence and the absence of the test substance using the thus-obtained TACE as an enzyme, and a fluorescent synthetic substrate Nma(N-methylanthranilic acid)-Leu-Ala-Gln-Ala-Val-Arg-Ser-Ser-Lys(Dnp(dinitrophenyl))-D-Arg-NH2 (SEQ ID NO: 1) including the TACE-cleaved sequence of a membrane-bound TNF as a substrate. The TACE inhibition test method is shown below. Namely, 90 μL of an enzyme solution prepared with an assay buffer A (50 mM tris-hydrochloric acid buffer (pH 7.5) including 200 mM sodium chloride, 5 mM calcium chloride, 10 μM zinc sulfate, and 2 mg/mL bovine serum albumin) and 90 μL of a fluorescent synthetic substrate prepared with an assay buffer B (50 mM tris-hydrochloric acid buffer (pH 7.5) including 200 mM sodium chloride, 5 mM calcium chloride, 10 μM zinc sulfate, and 0.05% PLURONIC F-68) were mixed together, and reacted at 37° C. for 1.5 hours. Enzyme activity was then determined by measuring with a fluorescence intensity meter (Labsystems, Fluoroskan Ascent) at an excitation wavelength of 355 nm and a measurement wavelength of 460 nm.

For `Cc1cccn(CC2(c3ccc(F)c(F)c3)NC(=O)NC2=O)c1=O` (configuration not stated), the IC50 was < 100 nM. On to `Cc1cccn(CC2(c3ccc(Oc4ccc(Cl)cc4)cc3)NC(=O)NC2=O)c1=O` (configuration not stated), for which the IC50 was < 100 nM.
